{"source": "patent US20150293086A1", "about": "“LATERAL FLOW IMMUNOASSAY” (ABREOS BIOSCIENCES, INC., priority 2014, published 2015)", "system": "rituximab binding mimetope peptide", "assay": "Peptide based ELISA: biotinylated mimetope peptides on streptavidin/neutravidin plates capture the antibody", "conditions": "biotinylated peptide on coated plate, peroxidase labeled secondary anti-Fc antibody", "procedure": "FIG. 2 (A) illustrates one embodiment of the lateral flow assay validating that rituximab binding mimetope peptide function in immunoassays and competes with the native antigen (CD20). FIG. 2 (A) is a standard curve for rituximab by peptide based ELISA. Biotinylated peptides are bound onto neutravidin coated ELISA plates. Rituximab is diluted in TBST. […] The solid line indicates the mean of the buffer control and the dashed line represents the mean +10 times the SD of the buffer control.\nTo confirm that a synthetic peptide captures the antibody, ELISAs were performed. Peptides biotinylated at the C-terminus were coated onto streptavidin coated plates and then incubated with a dilution serious of antibody. Binding was detected via a peroxidase labeled secondary anti-Fc antibody. Specificity was confirmed by lack of signal from either total Ig or using a different antibody. […] The antibody was fluorescently labeled and the cell staining evaluated with or without a molar excess of the presumed mimetope as well as control peptides. […]\nFIG. 2 illustrates one embodiment of the lateral flow assay validating that rituximab binding mimetope peptide function in immunoassays and competes with the native antigen (CD20). […] Fluorescently labeled rituximab was incubated with primary CLL cells and evaluated by flow cytometry (solid line). […]", "data": [{"substance": "rituximab: monoclonal antibody; native antigen CD20", "values": [{"measurement": "sensitivity of peptide ELISA for the antibody", "result": 4, "unit": "µg/mL"}]}]}
